Experimental data as given in PubChem BioAssay (NCI).
Several values for one entry are separate records, joined by “and”; a condition that tells them apart may be missing. Equal values may be shown once.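 Cultured in 96-well plates, cells were exposed to test compound for 48 hours across five concentrations. GI50 = concentration required for 50% inhibition of growth. TGI: total growth inhibition.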

Assays:
Experiment in all cases: inhibition of tumour cell growth, NCI panel, 48 h
[1] = tested on: ACHN renal
[2] = tested on: SK-MEL-2 melanoma
[3] = tested on: UACC-62 melanoma
[4] = tested on: CCRF-CEM leukemia
[5] = tested on: COLO 205 colon
[6] = tested on: SR leukemia
[7] = tested on: OVCAR-8 ovarian
[8] = tested on: U251 CNS
[9] = tested on: PC-3 prostate
[10] = tested on: HS 578T breast

Compound `COc1cccc(/C=N/[N-]C(=O)c2ccncc2)c1[O-].[Mn+2].[OH3+]` has a GI50 [1] of 3.75 µM, a TGI [1] of 47.8 µM and a GI50 [2] of 25.6 µM. The TGI [2] was over 100 µM, the GI50 [3] was 3.9 µM and the TGI [3] was 23.2 µM. The GI50 [4] was 1.8 µM, the TGI [4] was 6.26 µM and the GI50 [5] was 4.49 µM. It also gave a TGI [5] of over 100 µM, a GI50 [6] of 3.63 µM and a TGI [6] of over 100 µM. For the same compound, the GI50 [7] was 3.77 µM, the TGI [7] was over 100 µM and the GI50 [8] was 5.45 µM. For the same compound, the TGI [8] was over 100 µM.
`CCc1cccc(C(C)C)c1NC(=O)CC1Sc2ccccc2NC1=O` (stereo not given) was tested, and the TGI [1] was over 100 µM, the TGI [2] was over 100 µM and the TGI [4] was over 100 µM. For the same compound, the TGI [5] was over 100 µM, the TGI [6] was 94.4 µM and the TGI [7] was over 100 µM. For the same compound, the TGI [8] was over 100 µM.
Compound `Cc1noc2cccc(O)c12` has a TGI [1] of over 100 µM, a TGI [2] of over 100 µM and a TGI [3] of over 100 µM. The TGI [4] was over 100 µM, the TGI [5] was over 100 µM and the TGI [7] was over 100 µM. The TGI [8] was over 100 µM.
Work on `Cc1ccccc1NC(=O)CC1C(=O)Nc2ccccc2S1=O` (stereo not given) yielded a TGI [1] of over 100 µM, a TGI [2] of over 100 µM and a TGI [3] of over 100 µM. It also gave a TGI [4] of over 100 µM, a TGI [6] of over 100 µM and a TGI [7] of over 100 µM. The TGI [8] was over 100 µM.
Work on `NC1=NN(c2ccccc2)C(=O)C1C(=O)C(=O)Nc1ccc(Cl)cc1` (stereo not given) yielded a TGI [1] of over 100 µM, a TGI [2] of over 100 µM and a TGI [3] of over 100 µM. The TGI [4] was over 100 µM, the TGI [5] was over 100 µM and the TGI [6] was over 100 µM. It also gave a TGI [7] of over 100 µM and a TGI [8] of over 100 µM.
In the case of `CCCCCC/C=C/C#CCCCCCCCC(=O)O`, the TGI [1] is reported as over 100 µM, the TGI [2] is reported as over 100 µM and the TGI [9] is reported as over 100 µM. The TGI [4] was over 100 µM, the TGI [5] was over 100 µM and the TGI [7] was over 100 µM. For the same compound, the TGI [8] was over 100 µM and the TGI [10] was over 100 µM.
In the case of `NC(Cc1ccccc1)C(=O)OCN1C(=O)C2C3C=CC(C2C1=O)C1C2C(=O)N(COC(=O)C(N)Cc4ccccc4)C(=O)C2C31` (stereo not given), the TGI [1] is reported as 59.2 µM and 71.3 µM, the TGI [3] is reported as 41.4 µM and 37.7 µM and the TGI [4] is reported as 50.3 µM and > 100 µM. For the same compound, the TGI [5] was 32.8 µM and 32.2 µM, the TGI [6] was 50.3 µM and the TGI [7] was 54.1 µM and 43.7 µM. For the same compound, the TGI [8] was 39.1 µM and 34.6 µM.
Work on `CN1CCN(CCCOc2cccc3nc(Nc4cc(Cl)cc(Cl)c4)ccc23)CC1` yielded a GI50 [1] of 1.66 µM, a TGI [1] of 3.09 µM and a GI50 [2] of 1.79 µM. It also gave a TGI [2] of 3.54 µM, a GI50 [9] of 1.76 µM and a TGI [9] of 3.29 µM. It also gave a GI50 [3] of 1.95 µM, a TGI [3] of 3.68 µM and a GI50 [5] of 1.63 µM. For the same compound, the TGI [5] was 3.13 µM, the GI50 [7] was 1.94 µM and the TGI [7] was 3.48 µM. It also gave a GI50 [8] of 1.72 µM, a TGI [8] of 3.1 µM and a GI50 [10] of 2.5 µM. For the same compound, the TGI [10] was 7.07 µM.
With `CC(C)N(C(=O)C12C3C4C1C1C2C3C41C(=O)C(C)(C)C)C(C)C` (stereo not given) the TGI [1] was over 100 µM, the TGI [2] was over 100 µM and the TGI [3] was over 100 µM. The TGI [4] was over 100 µM, the TGI [5] was over 100 µM and the TGI [7] was over 100 µM. The TGI [8] was over 100 µM.
In the case of `C#CCN(N=O)C(=O)NC(CCCCNC(=O)OCc1ccccc1)C(=O)OCc1ccccc1` (stereo not given), the TGI [1] is reported as over 100 µM, the TGI [2] is reported as over 100 µM and the TGI [3] is reported as over 100 µM. For the same compound, the TGI [4] was 41.8 µM, the TGI [5] was 96.6 µM and the TGI [7] was 38.9 µM. For the same compound, the TGI [8] was 76.8 µM.
Compound `CC(Oc1cc2oc(=O)cc(-c3ccccc3)c2cc1Cl)C(=O)O` (stereo not given) has a TGI [1] of over 100 µM, a TGI [3] of over 100 µM and a TGI [4] of over 100 µM. It also gave a TGI [5] of over 100 µM, a TGI [6] of over 100 µM and a TGI [7] of over 100 µM. The TGI [8] was over 100 µM.
`COC(=O)C(=O)C(CC(=O)Nc1cc(Cl)ccc1Cl)C(=O)OC` (stereo not given) gave a TGI [1] of over 100 µM, a TGI [2] of over 100 µM and a TGI [3] of over 100 µM. For the same compound, the TGI [4] was over 100 µM, the TGI [5] was over 100 µM and the TGI [6] was over 100 µM. For the same compound, the TGI [7] was over 100 µM and the TGI [8] was over 100 µM.
`CC1=C(C(=O)Nc2cccc(Cl)c2)C(c2ccccc2O)C(C(=O)Nc2cccc(Cl)c2)=C(C)N1` was tested, and the TGI [1] was 53.8 µM, the TGI [2] was 32.2 µM and the TGI [4] was 50.2 µM. For the same compound, the TGI [5] was 43.2 µM, the TGI [7] was 60.1 µM and the TGI [8] was 41.4 µM.
In the case of `CCCCCCCCCCC(=O)CCCCCCC(=O)O`, the TGI [1] is reported as 56.6 µM, the TGI [2] is reported as over 100 µM and the TGI [3] is reported as 35.5 µM. For the same compound, the TGI [4] was 73.8 µM, the TGI [5] was 29.8 µM and the TGI [6] was 44.2 µM. For the same compound, the TGI [7] was 33.7 µM and the TGI [8] was 86.1 µM.
`N#CCCN(CCC#N)c1ccc(/C=C(/NC(=O)c2cc([N+](=O)[O-])ccc2Cl)C(=O)N=[N+]=[N-])cc1` gave a TGI [1] of over 100 µM, a TGI [2] of over 100 µM and a TGI [3] of over 100 µM. For the same compound, the TGI [4] was over 100 µM, the TGI [5] was over 100 µM and the TGI [6] was over 100 µM. The TGI [7] was over 100 µM and the TGI [8] was over 100 µM.
With `O=C(CCc1nc(=S)[nH][nH]1)Nc1cc(Cl)ccc1Cl` the TGI [1] was over 100 µM, the TGI [2] was over 100 µM and the TGI [3] was over 100 µM. For the same compound, the TGI [4] was over 100 µM, the TGI [5] was over 100 µM and the TGI [6] was over 100 µM. For the same compound, the TGI [7] was over 100 µM and the TGI [8] was over 100 µM.
With `Cc1ccc2c(c1)[n+](=O)c(C(=O)c1cccs1)c(C(F)(F)F)n2[O-]` the GI50 [1] was 1.25 µM and 0.541 µM, the TGI [1] was 6.47 µM and 4.68 µM and the TGI [2] was 50 µM and 18.6 µM. For the same compound, the GI50 [9] was 0.528 µM and 1.38 µM, the GI50 [3] was 0.951 µM and 1.91 µM and the TGI [3] was 2.73 µM and 13.9 µM. For the same compound, the GI50 [4] was 1.72 µM, the TGI [4] was 50 µM and the GI50 [5] was 1.47 µM and 0.842 µM. For the same compound, the TGI [5] was 7.68 µM and 10.9 µM, the GI50 [6] was 0.152 µM and the TGI [6] was 50 µM. The GI50 [7] was 1.67 µM and 0.247 µM, the GI50 [8] was 1.6 µM and 0.906 µM and the TGI [8] was 10.1 µM and 14.3 µM.
